Converted amounts (≈) assume the structure as drawn.
What was measured:
Assay in all cases: ≥ marks a high value that may be exact or a test limit, other limits are often not marked, values filed in µg/mL are converted to µM
[1] = tested on: Cronobacter sakazakii DPC 6440
[2] = tested on: Listeria monocytogenes LO28
[3] = tested on: Escherichia coli NEB5alpha
[4] = tested on: Bacillus subtilis ATCC 6051
Bacillus megaterium = tested on: Bacillus megaterium
Aerococcus viridans = tested on: Aerococcus viridans
Micrococcus luteus = tested on: Micrococcus luteus
[5] = tested on: Escherichia coli ATCC 25922
[6] = tested on: Salmonella typhimurium ATCC 7731
[7] = tested on: Salmonella enterica subsp. enterica serovar Typhimurium ATCC 14028
[8] = tested on: Bacillus subtilis CMCC 63501
[9] = tested on: Staphylococcus epidermidis ATCC 12228
[10] = tested on: Staphylococcus aureus ATCC 29213
Escherichia coli UB1005 = tested on: Escherichia coli UB1005
[11] = tested on: Pseudomonas aeruginosa ATCC 27853
[12] = tested on: Enterococcus faecalis ATCC 29212
[13] = tested on: Pseudomonas aeruginosa PAO1

SMILES	MIC [1] [µM]	MIC [2] [µM]	MIC [5] [µM]	MIC [6] [µM]	MIC [7] [µM]	MIC [8] [µM]	MIC [9] [µM]	MIC [10] [µM]	MIC (Escherichia coli UB1005) [µM]	MIC [11] [µM]	other results
CC[C@H](C)[C@H](NC(=O)[C@@H](N)Cc1c[nH]c2ccccc12)C(=O)N[C@@H](CCC(N)=O)C(=O)N1CCC[C@H]1C(=O)N[C@@H](CCCCN)C(=O)N[C@H](C(=O)N[C@@H](CCCCN)C(=O)N[C@H](C(=O)N[C@H](C(=O)N1CCC[C@H]1C(=O)N[C@@H](C)C(=O)N[C@H](C(=O)N[C@@H](CCCN=C(N)N)C(=O)N[C@@H](C)C(=O)N[C@@H](CC(C)C)C(=O)O)C(C)C)[C@@H](C)CC)C(C)C)[C@@H](C)O [WIQPKTKVIPAVRAL]	≥ 312	≥ 156									
CC(C)C[C@H](NC(=O)[C@H](CCCN=C(N)N)NC(=O)[C@H](CC(C)C)NC(=O)[C@H](CC(C)C)NC(=O)[C@H](CCC(N)=O)NC(=O)[C@H](CCC(=O)O)NC(=O)[C@@H](N)CC(C)C)C(=O)N[C@@H](CCCCN)C(=O)N[C@@H](CCCCN)C(=O)N[C@@H](Cc1ccc(O)cc1)C(=O)O [LEQLLRLKKY]											MIC [3]: ≥ 633 µM; MIC [4]: ≥ 1270 µM
CC[C@H](C)[C@H](NC(=O)[C@@H](NC(=O)[C@H](CCCCN)NC(=O)[C@@H](NC(=O)[C@H](CCCCN)NC(=O)[C@H](C)NC(=O)[C@H](CCC(N)=O)NC(=O)[C@@H](NC(=O)[C@@H](N)Cc1c[nH]c2ccccc12)[C@@H](C)CC)[C@@H](C)O)C(C)C)C(=O)N[C@@H](C)C(=O)N[C@@H](Cc1ccc(O)cc1)C(=O)N[C@H](C(=O)N[C@@H](CCCN=C(N)N)C(=O)N[C@@H](Cc1ccc(O)cc1)C(=O)N[C@@H](CC(C)C)C(=O)O)C(C)C [WIQAKTKVIAYVRYL]	19.5 (≈ 36.2 µg/mL)	2.44 (≈ 4.52 µg/mL)									
CSCC[C@H](NC(=O)[C@H](CCCN=C(N)N)NC(=O)[C@H](CCC(N)=O)NC(=O)[C@@H]1CSSC[C@H](NC(=O)[C@@H](N)Cc2ccc(O)cc2)C(=O)N[C@@H](CC(N)=O)C(=O)N[C@@H](CCCN=C(N)N)C(=O)N[C@@H](CCCN=C(N)N)C(=O)N[C@@H]([C@@H](C)O)C(=O)NCC(=O)N[C@@H](CCCCN)C(=O)N1)C(=O)O [YCNRRTGKCQRM]											MIC (Bacillus megaterium): 28.3 µM (≈ 42.8 µg/mL); MIC (Aerococcus viridans): 28.3 µM (≈ 42.8 µg/mL); MIC (Micrococcus luteus): 28.3 µM (≈ 42.8 µg/mL)
CC[C@H](C)[C@H](NC(=O)[C@H](C)NC(=O)[C@@H](NC(=O)[C@@H]1CCCN1C(=O)[C@@H](NC(=O)[C@H](CC(C)C)NC(=O)[C@@H]1CCCN1C(=O)[C@H](Cc1c[nH]c2ccccc12)NC(=O)[C@H](Cc1ccccc1)NC(=O)[C@H](CCCN=C(N)N)NC(=O)[C@@H](N)CCCCN)C(C)C)C(C)C)C(=O)N[C@@H](CC(N)=O)C(=O)N[C@H](C(=O)N[C@H](C(=O)N[C@@H](C)C(N)=O)C(C)C)[C@@H](C)O [KRFWPLVPVAINTVA]			> 128	≥ 128	> 128	≥ 128	128 (≈ 219 µg/mL)	> 128	≥ 64	> 128	
CC[C@H](C)[C@H](NC(=O)[C@H](CCC(=O)O)NC(=O)CNC(=O)[C@@H](NC(=O)[C@H](Cc1ccccc1)NC(=O)[C@H](C)NC(=O)[C@H](CCCCN)NC(=O)CNC(=O)[C@H](Cc1ccccc1)NC(=O)[C@H](CCCCN)NC(=O)[C@H](CCCCN)NC(=O)[C@H](C)N)C(C)C)C(=O)N[C@@H](CCSC)C(N)=O [AKKFGKAFVGEIM]			32 (≈ 45.6 µg/mL)	≥ 64	> 64	≥ 64	> 64	> 64	≥ 64	> 64	MIC [12]: > 64 µM; MIC [13]: > 64 µM

— DBAASP
